What all share (type): biochemical
Conditions in all cases: isolated kinase, 33P-ATP, 2 h

One assay concerns the target T1, FLT3 (Homo sapiens, UniProt P36888).
T1 sequence (P36888 27-993): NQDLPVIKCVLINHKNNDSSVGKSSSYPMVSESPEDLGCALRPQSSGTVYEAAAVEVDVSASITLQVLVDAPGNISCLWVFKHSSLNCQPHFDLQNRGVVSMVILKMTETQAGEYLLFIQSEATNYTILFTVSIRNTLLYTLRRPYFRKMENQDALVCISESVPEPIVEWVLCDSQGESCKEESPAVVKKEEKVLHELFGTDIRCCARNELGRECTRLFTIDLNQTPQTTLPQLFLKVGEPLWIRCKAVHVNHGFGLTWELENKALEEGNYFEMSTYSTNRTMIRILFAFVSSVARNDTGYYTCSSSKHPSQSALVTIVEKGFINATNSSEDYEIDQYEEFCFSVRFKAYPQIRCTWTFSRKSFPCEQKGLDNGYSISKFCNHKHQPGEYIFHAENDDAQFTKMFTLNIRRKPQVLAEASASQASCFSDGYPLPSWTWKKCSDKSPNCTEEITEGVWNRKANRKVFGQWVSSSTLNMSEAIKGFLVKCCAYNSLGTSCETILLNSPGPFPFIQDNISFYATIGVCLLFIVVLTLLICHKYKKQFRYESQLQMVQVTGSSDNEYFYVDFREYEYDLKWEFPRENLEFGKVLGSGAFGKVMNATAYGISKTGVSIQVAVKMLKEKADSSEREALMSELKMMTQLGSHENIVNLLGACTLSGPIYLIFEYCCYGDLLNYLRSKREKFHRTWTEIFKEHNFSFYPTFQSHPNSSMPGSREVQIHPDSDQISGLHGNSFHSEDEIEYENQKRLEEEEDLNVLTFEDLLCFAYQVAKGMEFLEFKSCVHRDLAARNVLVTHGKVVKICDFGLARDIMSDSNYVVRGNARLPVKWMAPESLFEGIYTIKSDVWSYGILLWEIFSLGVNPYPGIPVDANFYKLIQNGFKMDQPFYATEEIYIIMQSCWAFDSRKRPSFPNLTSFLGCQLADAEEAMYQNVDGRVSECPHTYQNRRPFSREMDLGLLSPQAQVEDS
The assay is described as follows: RBC HotSpot kinase inhibition assay, FLT3. The method, boiled down:
(§1)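 Isolated kinases, possibly truncated or lacking regulatory receptor domains, in 20 mM Hepes pH 7.5, 10 mM MgCl2, 1 mM EGTA, 0.01% Brij35, 2 mM DTT, 1% DMSO with substrate and cofactors. Compound preincubated 20 min, then ^33P-ATP added; 2 h at room temperature, read by P81 filter binding.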

A further assay addresses IRAK1 (Homo sapiens, UniProt P51617). Briefly: RBC HotSpot kinase inhibition assay, IRAK1. The method, boiled down: as §1
For a further assay, the target named is T2, IRAK4 (Homo sapiens, UniProt Q9NWZ3).
T2 sequence (Q9NWZ3 1-460): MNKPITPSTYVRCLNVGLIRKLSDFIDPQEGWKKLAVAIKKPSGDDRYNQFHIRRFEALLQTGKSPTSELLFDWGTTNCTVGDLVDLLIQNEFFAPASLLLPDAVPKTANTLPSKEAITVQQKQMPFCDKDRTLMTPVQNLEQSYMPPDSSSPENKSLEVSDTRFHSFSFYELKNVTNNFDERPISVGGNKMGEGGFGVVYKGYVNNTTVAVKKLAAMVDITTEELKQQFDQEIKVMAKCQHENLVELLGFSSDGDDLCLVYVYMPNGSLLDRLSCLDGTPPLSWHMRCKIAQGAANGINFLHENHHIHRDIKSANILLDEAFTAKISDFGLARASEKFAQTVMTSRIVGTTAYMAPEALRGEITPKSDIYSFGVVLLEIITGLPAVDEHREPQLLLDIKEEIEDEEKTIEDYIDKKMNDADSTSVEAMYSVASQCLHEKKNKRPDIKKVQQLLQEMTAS
The assay is described as follows: RBC HotSpot kinase inhibition assay, IRAK4. The method, boiled down: as §1

Each structure is given as a SMILES string.

Chain of IRAK1 (P51617 whole entry): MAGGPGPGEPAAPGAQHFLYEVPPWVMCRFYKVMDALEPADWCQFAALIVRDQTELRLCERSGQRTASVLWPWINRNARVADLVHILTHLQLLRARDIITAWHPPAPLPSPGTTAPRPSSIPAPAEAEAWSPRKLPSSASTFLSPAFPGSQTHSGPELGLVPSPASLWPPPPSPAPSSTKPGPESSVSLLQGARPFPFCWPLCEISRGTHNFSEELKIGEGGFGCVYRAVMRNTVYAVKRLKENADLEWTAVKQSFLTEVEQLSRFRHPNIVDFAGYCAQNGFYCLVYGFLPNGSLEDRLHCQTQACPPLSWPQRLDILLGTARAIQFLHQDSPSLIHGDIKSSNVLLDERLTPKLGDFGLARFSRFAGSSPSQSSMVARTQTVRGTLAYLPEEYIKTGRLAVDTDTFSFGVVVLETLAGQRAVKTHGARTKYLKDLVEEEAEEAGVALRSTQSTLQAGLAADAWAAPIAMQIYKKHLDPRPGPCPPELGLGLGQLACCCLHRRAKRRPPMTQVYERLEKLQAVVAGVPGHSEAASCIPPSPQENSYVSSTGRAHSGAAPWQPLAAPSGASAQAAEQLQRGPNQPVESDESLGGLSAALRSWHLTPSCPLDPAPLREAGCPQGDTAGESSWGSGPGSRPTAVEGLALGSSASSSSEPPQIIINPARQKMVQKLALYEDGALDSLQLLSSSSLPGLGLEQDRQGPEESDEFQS

On to `COc1cn2ncc(-c3nc(N[C@@H]4CCCNC4)ccc3F)c2nc1C1CC1` [Compound 2, (R)-6-(5-cyclopropyl-6-methoxypyrazolo[1,5-a]pyrimidin-3-yl)-5-fluoro-N-(piperidin-3-yl)pyridin-2-amine], for which the IC50 is less than 0.5 nM on FLT3 (Table 11), 4 nM on IRAK1 (Table 11) and less than 0.5 nM against IRAK4 (Table 11).

As to `COc1cn2ncc(-c3nc(N[C@H]4CNCC[C@@H]4F)ccc3F)c2nc1C1CC1` [Compound 3, 6-(5-cyclopropyl-6-methoxypyrazolo[1,5-a]pyrimidin-3-yl)-5-fluoro-N-((3S,4S)-4-fluoropiperidin-3-yl)pyridin-2-amine], the IC50 was less than 0.5 nM against FLT3 (Table 11), 0.8 nM on IRAK1 (Table 11) and less than 0.5 nM against IRAK4 (Table 11).

For the compound `COc1cn2ncc(-c3ccnc(N[C@H]4CNCC[C@@H]4F)n3)c2nc1C(C)(C)O` [Compound 3a, 2-(3-(2-(((3S,4S)-4-fluoropiperidin-3-yl)amino)pyrimidin-4-yl)-6-methoxypyrazolo[1,5-a]pyrimidin-5-yl)propan-2-ol], the half-inhibitory concentration (IC50) turned out to be 0.7 nM against FLT3 (Table 17), 207 nM at IRAK1 (Table 17) and 15 nM at IRAK4 (Table 17).

`COc1cn2ncc(-c3nc(N[C@@H]4CCCNC4)ncc3F)c2nc1C(C)(C)O` [Compound 4a, (R)-2-(3-(5-fluoro-2-(piperidin-3-ylamino)pyrimidin-4-yl)-6-methoxypyrazolo[1,5-a]pyrimidin-5-yl)propan-2-ol]: the IC50 against FLT3 (Table 17) was less than 0.5 nM; against IRAK1 (Table 17) it was 4 nM; against IRAK4 (Table 17) it was 2 nM.

As to `COc1cn2ncc(-c3ccc(F)c(N[C@@H]4CCCNC4)n3)c2nc1C1CC1` [Compound 5, (R)-6-(5-cyclopropyl-6-methoxypyrazolo[1,5-a]pyrimidin-3-yl)-3-fluoro-N-(piperidin-3-yl)pyridin-2-amine], the results for the IC50 against FLT3 (Table 11), against IRAK1 (Table 11) and at IRAK4 (Table 11) were less than 0.5 nM, 29 nM and 3 nM, respectively.

`COc1cn2ncc(-c3nc(N[C@H]4CNC[C@@H]4F)ncc3F)c2nc1C(C)(C)O` [Compound 5a, 2-(3-(5-fluoro-2-(((3S,4S)-4-fluoropyrrolidin-3-yl)amino)pyrimidin-4-yl)-6-methoxypyrazolo[1,5-a]pyrimidin-5-yl)propan-2-ol]: the results for the IC50 against FLT3 (Table 17), against IRAK1 (Table 17) and against IRAK4 (Table 17) were less than 0.5 nM, 6 nM and 0.7 nM, respectively.

Turning to `COc1cn2ncc(-c3ccc(F)c(N[C@H]4CNCC[C@@H]4F)n3)c2nc1C1CC1` [Compound 6, 6-(5-cyclopropyl-6-methoxypyrazolo[1,5-a]pyrimidin-3-yl)-3-fluoro-N-((3S,4S)-4-fluoropiperidin-3-yl)pyridin-2-amine], the IC50 against FLT3 (Table 11) was less than 0.5 nM; at IRAK1 (Table 11), 4 nM; against IRAK4 (Table 11), 0.6 nM.

On to `COc1cn2ncc(-c3nc(N[C@H]4CNCC[C@@H]4F)ncc3F)c2nc1C(C)(C)O` [Compound 6a, 2-(3-(5-fluoro-2-(((3S,4S)-4-fluoropiperidin-3-yl)amino)pyrimidin-4-yl)-6-methoxypyrazolo[1,5-a]pyrimidin-5-yl)propan-2-ol], for which the figures for the IC50 against FLT3 (Table 17), against IRAK1 (Table 17) and at IRAK4 (Table 17) were less than 0.5 nM, 3 nM and 0.7 nM, respectively.

With `COc1cn2ncc(-c3nc(N[C@H]4CNCC[C@@H]4F)c(C#N)cc3F)c2nc1C1CC1` [Compound 7, 6-(5-cyclopropyl-6-methoxypyrazolo[1,5-a]pyrimidin-3-yl)-5-fluoro-2-(((3S,4S)-4-fluoropiperidin-3-yl)amino)nicotinonitrile], the IC50 against FLT3 (Table 11), against IRAK1 (Table 11) and against IRAK4 (Table 11) was less than 0.5 nM in each case.

For `COc1cn2ncc(-c3ccnc(N[C@H]4CNCC[C@@H]4F)n3)c2nc1C1CC1` [Compound 7a, 4-(5-cyclopropyl-6-methoxypyrazolo[1,5-a]pyrimidin-3-yl)-N-((3S,4S)-4-fluoropiperidin-3-yl)pyrimidin-2-amine], the figures for the 50% inhibitory concentration (IC50) against FLT3 (Table 17), at IRAK1 (Table 17) and at IRAK4 (Table 17) were less than 0.5 nM, 8 nM and 1 nM, respectively.

With `COc1cn2ncc(-c3ccnc(N[C@H]4CNC[C@@H]4F)n3)c2nc1C1CC1` [Compound 8a, 4-(5-cyclopropyl-6-methoxypyrazolo[1,5-a]pyrimidin-3-yl)-N-((3S,4S)-4-fluoropyrrolidin-3-yl)pyrimidin-2-amine], the half-inhibitory concentration (IC50) on FLT3 (Table 17) is less than 0.5 nM; against IRAK1 (Table 17), 9 nM; against IRAK4 (Table 17) it was 1 nM.

For `COc1cn2ncc(-c3nc(N[C@@H]4CCCNC4)c(C#N)cc3F)c2nc1C(C)(C)O` [Compound 9, (R)-5-fluoro-6-(5-(2-hydroxypropan-2-yl)-6-methoxypyrazolo[1,5-a]pyrimidin-3-yl)-2-(piperidin-3-ylamino)nicotinonitrile], the IC50 is less than 0.5 nM on FLT3 (Table 11), 3 nM against IRAK1 (Table 11) and less than 0.5 nM against IRAK4 (Table 11).

With `COc1cn2ncc(-c3nc(N[C@H]4CNCC[C@@H]4F)c(C#N)cc3F)c2nc1C(C)(C)O` [Compound 10, 5-fluoro-2-(((3S,4S)-4-fluoropiperidin-3-yl)amino)-6-(5-(2-hydroxypropan-2-yl)-6-methoxypyrazolo[1,5-a]pyrimidin-3-yl)nicotinonitrile], the figures for the 50% inhibitory concentration (IC50) at FLT3 (Table 11), on IRAK1 (Table 11) and on IRAK4 (Table 11) were less than 0.5 nM, 2 nM and less than 0.5 nM, respectively.

Consider `COc1cn2ncc(-c3nc(N[C@@H]4CCCNC4)c(F)cc3F)c2nc1C(C)(C)O` [Compound 11, (R)-2-(3-(3,5-difluoro-6-(piperidin-3-ylamino)pyridin-2-yl)-6-methoxypyrazolo[1,5-a]pyrimidin-5-yl)propan-2-ol], for which the IC50 against FLT3 (Table 11) was less than 0.5 nM; at IRAK1 (Table 11) it was 3 nM; on IRAK4 (Table 11) it was 1 nM.

Turning to `COc1cn2ncc(-c3cncc(N[C@@H]4CCCNC4)n3)c2nc1C1CC1` [Compound 11a, (R)-6-(5-cyclopropyl-6-methoxypyrazolo[1,5-a]pyrimidin-3-yl)-N-(piperidin-3-yl)pyrazin-2-amine], the half-maximal inhibitory concentration (IC50) against FLT3 (Table 17) is less than 0.5 nM; against IRAK1 (Table 17) it was 15 nM; on IRAK4 (Table 17), 1 nM.

For the compound `COc1cn2ncc(-c3nc(N[C@H]4CNC[C@@H]4F)c(F)cc3F)c2nc1C(C)(C)O` [Compound 12, 2-(3-(3,5-difluoro-6-(((3S,4S)-4-fluoropyrrolidin-3-yl)amino)pyridin-2-yl)-6-methoxypyrazolo[1,5-a]pyrimidin-5-yl)propan-2-ol], the figures for the IC50 at FLT3 (Table 11), against IRAK1 (Table 11) and on IRAK4 (Table 11) were less than 0.5 nM, 9 nM and less than 0.5 nM, respectively.

In the case of `COc1cn2ncc(-c3cncc(N[C@H]4CNCC[C@@H]4F)n3)c2nc1C1CC1` [Compound 12a, 6-(5-cyclopropyl-6-methoxypyrazolo[1,5-a]pyrimidin-3-yl)-N-((3S,4S)-4-fluoropiperidin-3-yl)pyrazin-2-amine], the concentration for half-maximal inhibition (IC50) against FLT3 (Table 17) was less than 0.5 nM; against IRAK1 (Table 17), 6 nM; against IRAK4 (Table 17), 0.8 nM.

Take `COc1cn2ncc(-c3nc(N[C@H]4CNCC[C@@H]4F)c(F)cc3F)c2nc1C(C)(C)O` [Compound 13, 2-(3-(3,5-difluoro-6-(((3S,4S)-4-fluoropiperidin-3-yl)amino)pyridin-2-yl)-6-methoxypyrazolo[1,5-a]pyrimidin-5-yl)propan-2-ol]: the IC50 is less than 0.5 nM on FLT3 (Table 11), 7 nM against IRAK1 (Table 11) and 2 nM at IRAK4 (Table 11).

For `COc1cn2ncc(-c3nc(N[C@H]4CNC[C@@H]4F)ncc3F)c2nc1C1CC1` [Compound 13a, 4-(5-cyclopropyl-6-methoxypyrazolo[1,5-a]pyrimidin-3-yl)-5-fluoro-N-((3S,4S)-4-fluoropyrrolidin-3-yl)pyrimidin-2-amine], the IC50 against FLT3 (Table 17), against IRAK1 (Table 17) and against IRAK4 (Table 17) was less than 0.5 nM in each case.

(Values after patent US20260374773A1, “MULTI-CYCLIC IRAK AND FLT3 INHIBITING COMPOUNDS AND USES THEREOF” (CHILDREN'S HOSPITAL MEDICAL CENTER, priority 2022, published 2026).)
